Experimental data taken from patent US9227973B2, “Pyridine CGRP receptor antagonists” (Merck Sharp & Dohme Corp., priority 2012, dated 2016).

Legend:
[1] = molecular target: T1, recombinant human CL receptor/RAMP1 (CGRP receptor) (Homo sapiens (Human), UniProt O60894+Q16602); experiment: Recombinant receptor functional assay (Assay B), cAMP HTRF; type: cell-based; settings: Assay B: HEK 293 cells, 2,000 cells/well, human α-CGRP 1.2 nM, cAMP inflection point
Procedure: RECOMBINANT RECEPTOR: Human CL receptor (Genbank accession number L76380) was subcloned into the expression vector pIREShyg2 (BD Biosciences Clontech) as a 5′NheI and 3′ PmeI fragment. Human RAMP1 (Genbank accession number AJ001014) was subcloned into the expression vector pIRESpuro2 (BD Biosciences Clontech) as a 5′NheI and 3′NotI fragment. HEK 293 cells (human embryonic kidney cells; ATCC #CRL-1573) were cultured in DMEM with 4.5 g/L glucose, 1 mM sodium pyruvate and 2 mM glutamine supplemented with 10% fetal bovine serum (FBS), 100 units/mL penicillin and […] streptomycin, and maintained at 37° C. and 95% humidity. Cells were subcultured by treatment with 0.25% trypsin with 0.1% EDTA in HBSS. Stable cell line generation was accomplished by co-transfecting 10 μg of DNA with 30 μg Lipofectamine 2000 (Invitrogen) in 75 cm^2 flasks. CL receptor and RAMP1 expression constructs were co-transfected in equal amounts. Twenty-four hours after transfection the cells were diluted and selective medium (growth medium+300 μg/mL hygromycin and 1 μg/mL puromycin) was added the following day. A clonal cell line was generated by single cell deposition utilizing a FACS Vantage SE (Becton Dickinson). Growth medium was adjusted to 150 μg/mL hygromycin and 0.5 μg/mL puromycin for cell propagation.
RECOMBINANT RECEPTOR FUNCTIONAL ASSAY (Assay B): Cells were resuspended in DMEM/F12 (Hyclone) supplemented with 1 g/L BSA and 300 μM isobutyl-methylxanthine. Cells were then plated in a 384-well plate (Proxiplate Plus 384; 509052761; Perkin-Elmer) at a density of 2,000 cells/well and incubated with antagonist for 30 min at 37° C. Human α-CGRP was then added to the cells at a final concentration of 1.2 nM and incubated an additional 20 min at 37° C. Following agonist stimulation, the cells were processed for cAMP determination using the two-step procedure according to the manufacturer's recommended protocol (HTRF cAMP dynamic 2 assay kit; 62AM4PEC; Cisbio). Raw data were transformed into concentration of cAMP using a standard curve then dose response curves were plotted and inflection point (IP) values were determined

[2] = molecular target: T1, recombinant human CL receptor/RAMP1 (CGRP receptor); experiment: Recombinant receptor functional assay (Assay C), cAMP HTRF; type: cell-based; settings: Assay C: HEK 293 cells, 3,500 cells/well, human α-CGRP 1 nM, cAMP inflection point
Procedure: Human RAMP1 (Genbank accession number AJ001014) was subcloned into the expression vector pIRESpuro2 (BD Biosciences Clontech) as a 5′NheI and 3′NotI fragment. […] Cells were subcultured by treatment with 0.25% trypsin with 0.1% EDTA in HBSS. Stable cell line generation was accomplished by co-transfecting 10 μg of DNA with 30 μg Lipofectamine 2000 (Invitrogen) in 75 cm^2 flasks. CL receptor and RAMP1 expression constructs were co-transfected in equal amounts. Twenty-four hours after transfection the cells were diluted and selective medium (growth medium+300 μg/mL hygromycin and 1 μg/mL puromycin) was added the following day. A clonal cell line was generated by single cell deposition utilizing a FACS Vantage SE (Becton Dickinson). Growth medium was adjusted to 150 μg/mL hygromycin and 0.5 μg/mL puromycin for cell propagation.

T1 sequence (Q16602 23-461): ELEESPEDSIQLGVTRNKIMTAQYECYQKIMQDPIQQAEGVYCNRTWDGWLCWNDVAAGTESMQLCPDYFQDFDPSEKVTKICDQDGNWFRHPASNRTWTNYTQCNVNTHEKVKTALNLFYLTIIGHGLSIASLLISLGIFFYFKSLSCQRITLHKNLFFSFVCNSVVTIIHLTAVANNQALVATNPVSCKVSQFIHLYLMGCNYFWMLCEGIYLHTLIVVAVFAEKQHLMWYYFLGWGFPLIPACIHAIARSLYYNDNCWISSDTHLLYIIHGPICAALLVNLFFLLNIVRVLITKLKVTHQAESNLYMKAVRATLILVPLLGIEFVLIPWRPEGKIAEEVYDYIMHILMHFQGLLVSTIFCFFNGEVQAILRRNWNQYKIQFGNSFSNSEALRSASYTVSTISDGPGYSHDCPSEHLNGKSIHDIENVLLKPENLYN
T1 sequence (O60894 27-148): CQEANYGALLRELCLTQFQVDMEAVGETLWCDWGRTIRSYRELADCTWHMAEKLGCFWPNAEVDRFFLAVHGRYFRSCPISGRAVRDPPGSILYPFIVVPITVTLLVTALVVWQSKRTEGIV

| SMILES | IC50 [1] [nM] | IC50 [2] [nM] |
| --- | --- | --- |
| O=C(NC1CC(c2ccccc2)Cc2cccnc21)c1cnc2c(c1)C[C@@]1(C2)C(=O)Nc2ncccc21 (single isomer, unassigned; isomer a) [5 isomer A] | 22 |  |
| O=C(NC1CC(c2ccccc2)Cc2cccnc21)c1cnc2c(c1)C[C@@]1(C2)C(=O)Nc2ncccc21 (single isomer, unassigned; isomer a) [6 isomer A] | 78 |  |
| O=C(NC1COC(c2ccccc2)Cc2cccnc21)c1cnc2c(c1)C[C@@]1(C2)C(=O)Nc2ncccc21 (single isomer, unassigned; isomer a) [9 isomer A] |  | 1900 |
| O=C(NC1CC(c2ccccc2)Cc2cccnc21)c1cnc2c(c1)C[C@]1(C2)C(=O)Nc2ncccc21 (single isomer, unassigned; isomer b) [5 isomer B] | 4600 |  |
| O=C(NC1CC(c2ccccc2)Cc2cccnc21)c1cnc2c(c1)C[C@]1(C2)C(=O)Nc2ncccc21 (single isomer, unassigned; isomer b) [6 isomer B] | 150 |  |
| O=C(NC1COC(c2ccccc2)Cc2cccnc21)c1cnc2c(c1)C[C@@]1(C2)C(=O)Nc2ncccc21 (single isomer, unassigned; isomer b) [9 isomer B] |  | 1100 |
| O=C(NC1COC(c2ccccc2)Cc2cccnc21)c1cnc2c(c1)C[C@@]1(C2)C(=O)Nc2ncccc21 (single isomer, unassigned; isomer c) [9 isomer C] |  | 1100 |
| N[C@@H]1c2cccnc2[C@H](NC(=O)c2cnc3c(c2)C[C@@]2(C3)C(=O)Nc3ncccc32)CC[C@H]1c1cccc(F)c1F [Example 1, (6S)—N-[(5S,6S,9R)-5-Amino-6-(2,3-difluorophenyl)-6,7,8,9-tetrahydro-5H-cyclohepta[b]pyridin-9-yl]-2′-oxo-1′,2′,5,7-tetrahydrospiro[cyclopenta[b]pyridine-6,3′-pyrrolo[2,3-b]pyridine]-3-carboxamide] | 0.93 |  |
| N[C@@H]1c2cccnc2[C@@H](NC(=O)c2cnc3c(c2)C[C@@]2(C3)C(=O)Nc3ncccc32)CC[C@H]1c1cccc(F)c1F [Example 2, (6S)—N-[(5S,6S,9S)-5-Amino-6-(2,3-difluorophenyl)-6,7,8,9-tetrahydro-5H-cyclohepta[b]pyridin-9-yl]-2′-oxo-1′,2′,5,7-tetrahydrospiro[cyclopenta[b]pyridine-6,3′-pyrrolo[2,3-b]pyridine]-3-carboxamide] | 290 |  |
| N[C@H]1c2cccnc2[C@H](NC(=O)c2cnc3c(c2)C[C@@]2(C3)C(=O)Nc3ncccc32)CC[C@H]1c1cccc(F)c1F [Example 3, (6S)—N-[(5R,6S,9R)-5-Amino-6-(2,3-difluorophenyl)-6,7,8,9-tetrahydro-5H-cyclohepta[b]pyridin-9-yl]-2′-oxo-1′,2′,5,7-tetrahydrospiro[cyclopenta[b]pyridine-6,3′-pyrrolo[2,3-b]pyridine]-3-carboxamide] | 6.3 |  |
| N[C@H]1c2cccnc2[C@@H](NC(=O)c2cnc3c(c2)C[C@@]2(C3)C(=O)Nc3ncccc32)CC[C@H]1c1cccc(F)c1F [Example 4, (6S)—N-[(5R,6S,9S)-5-Amino-6-(2,3-difluorophenyl)-6,7,8,9-tetrahydro-5H-cyclohepta[b]pyridin-9-yl]-2′-oxo-1′,2′,5,7-tetrahydrospiro[cyclopenta[b]pyridine-6,3′-pyrrolo[2,3-b]pyridine]-3-carboxamide] | 65 |  |
| O=C(N[C@H]1CC[C@H](c2cccc(F)c2F)Cc2cccnc21)c1cnc2c(c1)C[C@@]1(C2)C(=O)Nc2ncccc21 [Example 7A, (S)—N-((6S,9S)-6-(2,3-difluorophenyl)-6,7,8,9-tetrahydro-5H-cyclohepta[b]pyridin-9-yl)-2′-oxo-1′,2′,5,7-tetrahydrospiro[cyclopenta[b]pyridine-6,3′-pyrrolo[2,3-b]pyridine]-3-carboxamide] | 380 |  |
| O=C(N[C@@H]1CC[C@@H](c2cccc(F)c2F)Cc2cccnc21)c1cnc2c(c1)C[C@@]1(C2)C(=O)Nc2ncccc21 [Example 7B, (S)—N-((6R,9R)-6-(2,3-difluorophenyl)-6,7,8,9-tetrahydro-5H-cyclohepta[b]pyridin-9-yl)-2′-oxo-1′,2′,5,7-tetrahydrospiro[cyclopenta[b]pyridine-6,3′-pyrrolo[2,3-b]pyridine]-3-carboxamide] | 4.5 |  |
